The text below walks through data of patent US20030175319A1, “Method for controlling termite” (SUMITOMO CHEMICAL COMPANY, LIMITED, priority 2002, published 2003).

Assay [1] deals with Formosan subterranean termites (Coptotermes formosanus). Put plainly: Test Example 1: mortality of termites released in a plastic cup with the sheet formulation. The format is in vivo. The conditions noted are these: for Mortality (%): 2.5 g sheet formulation, 100 termites. How it is done: The sheet formulation obtained in Formulation example 1 or 2 (2.5 g) was put in a plastic cup (8.5 cm in diameter). The plastic cup was set inside a large cup having wet cotton for supplying moisture and 100 Formosan subterranean termites (Coptotermes formosanus) were released in the plastic cup. After 2, 4 and 8 weeks, the mortality of the termites was observed. Further, the same sheet formulation as Formulation example 2 except that hexaflumuron was used in place of bistrifluron was tested for reference.

In assay [2] the test system is Formosan subterranean termites. The assay can be described thus: Test Example 2: field test, sheet formulation buried at tree stumps damaged by termites. It is filed as in vivo, Coptotermes formosanus. The settings on record: conclusion from Table 2. The text has this:
In a place termites inhabit, two tree stumps (A and B) damaged by Formosan subterranean termites were found. The distance between A and B is about 500 m. Two wooden blocks (φ75 mm×78 mm) were buried near A and B, respectively.
After all the wooden blocks were damaged by the termites, each of about 60 g of the sheet formulation obtained in Formulation example 2 was buried in place of the damaged wooden blocks at A. On the other hand, the same sheet formulation as Formulation example 2 except that hexaflumuron was used in place of bistrifluron was used at B. Further, two of the sheet formulation were added at A and B respectively, after two weeks. […]
Soldiers are usually in their colony. At emergency, soldiers are observed.

`O=C(NC(=O)c1c(F)cccc1F)Nc1cc(Cl)c(OC(F)(F)C(F)F)c(Cl)c1` [Hexaflumuron, 1-[3,5-dichloro-4-(1,1,2,2-tetrafluoroethoxy)phenyl]-3-(2,6-difluorobenzoyl)urea]: the “Mortality (%)” value in assay [1] (after 2 weeks) amounted to 5%; in assay [1] (after 4 weeks), 34%; in assay [1] (after 8 weeks), 100%.

Take `O=C(NC(=O)c1c(F)cccc1F)Nc1cc(C(F)(F)F)cc(C(F)(F)F)c1Cl` [bistrifluron, N-[2-chloro-3,5-bis(trifluoromethyl)phenyl]-N′-(2,6-difluorobenzoyl)urea]: the “rapidity of efficacy compared with hexaflumuron” value in assay [2] and in assay [1] (conclusion from Table 1) was “more rapid efficacy than hexaflumuron” throughout.
